Data taken from patent publication US6855872B2 (priority 1997, dated 2005).

Tests used:
[1] = test system: leaf explants from pCARPLC4 plants; format: cell-based
[2] = test system: maize embryogenic cultures (A188xB73) transformed with pActRPL3; format: cell-based
[3] = test system: leaf explants of wild-type plants; format: cell-based
[4] = test system: protoplasts from wild-type tobacco plants; format: cell-based, Nicotiana tabacum
[5] = test system: cells of transgenic line expressing the rice Rpl3c:258 (N.dpCARPLC4); format: cell-based, N. debneyi
[6] = test system: wild type non-transformed N. debneyi cell suspension (N.d.wt); format: cell-based
[7] = test system: protoplasts from transgenic plants with the rice Rpl3 gene (C3 lines); format: cell-based, Nicotiana tabacum
[8] = test system: wheat anther-derived callus tissue; details: cited from earlier work
mature maize embryos = details: cited from earlier work
[9] = test system: protoplasts of the genotype Rpl3:c258 (C4 lines); format: cell-based, Nicotiana tabacum
[10] = test system: leaf explants of pCAPRL3 plants; format: cell-based
[11] = test system: cell suspensions of pCARPL3 plants (N.d.pCARPL3); format: cell-based, N. debneyi
[12] = test system: maize embryogenic cultures (A188xB73) transformed with pActRPLC4; format: cell-based

Q: For `CC1=C[C@H]2O[C@@H]3[C@H](O)C[C@](C)([C@@]2(CO)[C@H](O)C1=O)[C@]31CO1` [DON, deoxynivalenol], which “shoot regeneration on leaf explants” value [1] is on record?
A: The value was “capable of shoot regeneration”.

Q: And the “callus growth, % of the control” value [2]?
A: Its value is 15%.

Q: What about the “formation of callus and shoots on leaf explants” value [3] of the same molecule?
A: The value was “inhibiting the formation of callus and shoots”.

Q: What about the “susceptibility of wild-type plants (protoplasts) to DON” value [4] of the same molecule?
A: The value was “susceptible”.

Q: What about the “impact on packed cell volume or cell fresh weight gain” value [5] of the same molecule?
A: Its value is “less serious impact”.

Q: And the “weight gain of cells after 20 days in culture” value (from here on “weight gain of cells”) [5]?
A: The value was “not inhibited as much”.

Q: What about the “weight gain of cells” value [6] of the same molecule?
A: The value was “inhibited”.

Q: What about the “micro colony formation from protoplasts” value [7] of the same molecule?
A: The value was “did not often develop into calli”.

Q: And the “growth of wheat anther-derived callus tissue” value [8]?
A: Its value is “reduces growth”.

Q: And the “DON concentration sufficient to significantly inhibit growth” value (mature maize embryos)?
A: Its value is 10 µg/mL.

Q: And the “micro colony formation from protoplasts” value [9]?
A: Its value is “capable of transfer to regeneration medium”.

Q: What about the viability of protoplasts [9] of the same molecule?
A: Its viability of protoplasts is “not significantly affected”.

Q: What about the “formation of callus and shoots on leaf explants” value [10] of the same molecule?
A: Its value is “inhibiting the formation of callus and shoots”.

Q: And the “packed cell volume and fresh weight gain of cell suspensions” value [11]?
A: Its value is “sufficient to inhibit”.

Q: And the “weight gain of cells” value [11]?
A: Its value is “inhibited”.

Q: What about the “DON required to reduce growth to 15% of control values” [12] of the same molecule?
A: The value was 50 µg/mL.

Q: What about the “callus growth, % of the control” value [12] of the same molecule?
A: The value was 63%.

Q: And the “increase in tolerance to DON by the RPLC4 callus” value [12]?
A: The value was 10 fold.
